Laboratory results taken from patent publication US4689326A, “Process for controlling hyperlipidemia” (Research Corporation, priority 1985, dated 1987).

How the values were obtained:
Acetyl CoA Synthetase = target: T1, Acetyl CoA Synthetase (Mus musculus, UniProt Q9QXG4); assay: In vitro enzyme activity, liver homogenate: acetyl CoA synthetase; assay type: biochemical, CF1 male mouse; settings: ± SD, N = 6, read-out: Percent Control, in vitro enzyme activity
T1 construct: 10% homogenates of CF1 male mouse liver; from tissue; host or cells: CF1 male mouse liver, 10% homogenate
T1 sequence (Q9QXG4 whole entry): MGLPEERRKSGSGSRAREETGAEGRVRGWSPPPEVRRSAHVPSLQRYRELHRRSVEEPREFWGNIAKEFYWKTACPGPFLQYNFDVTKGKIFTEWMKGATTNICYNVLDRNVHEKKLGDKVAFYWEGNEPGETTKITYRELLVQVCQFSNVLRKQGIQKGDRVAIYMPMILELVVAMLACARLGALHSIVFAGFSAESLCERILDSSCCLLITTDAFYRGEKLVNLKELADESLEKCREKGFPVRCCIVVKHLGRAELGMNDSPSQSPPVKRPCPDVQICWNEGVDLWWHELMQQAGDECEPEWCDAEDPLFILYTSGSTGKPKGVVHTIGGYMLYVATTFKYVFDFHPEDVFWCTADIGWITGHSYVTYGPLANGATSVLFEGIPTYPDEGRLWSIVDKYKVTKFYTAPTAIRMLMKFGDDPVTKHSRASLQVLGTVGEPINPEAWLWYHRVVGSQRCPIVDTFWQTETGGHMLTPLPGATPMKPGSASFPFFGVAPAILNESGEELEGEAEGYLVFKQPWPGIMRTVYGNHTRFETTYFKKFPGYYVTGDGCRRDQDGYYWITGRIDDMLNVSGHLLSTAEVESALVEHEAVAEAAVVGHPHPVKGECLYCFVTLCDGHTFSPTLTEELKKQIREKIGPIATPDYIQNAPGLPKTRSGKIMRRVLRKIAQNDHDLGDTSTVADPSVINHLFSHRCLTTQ
Protocol: (§1) In vitro enzymatic studies were undertaken using 10% homogenates of CF1 male mouse liver with […] of compound 3,4,5,6-dibenzohomopiperidine. In addition, in vivo enzymatic studies were performed, again using 10% liver homogenates (prepared in 0.25 M sucrose plus 0.001 M (ethylenedinitrilo)-tetraacetic acid, ph 7.25 from CF1 male mice obtained after administering 3,4,5,6-dibenzohomopiperidine for 16 days at a concentration ranging from 10 to 60 mg/kg/day, intraperitoneally.
(§2) The following enzyme activities were determined by following standard literature procedures: acetyl coenzyme synthetase; adenosine triphosphate dependent citrate lyase; mitochondrial citrate exchange; cholesterol/7 hydroxylase; 3-hydroxy-3-methyl-glutaryl coenzyme A reductase; acetyl coenzyme A carboxylase activity; fatty acid synthetase activity; sn-glycerol-3-phosphate acyl transferase activity; phosphatidate phosphohydrolase activity; cholesterol acyl transferase; and heparin activated hepatic lypoprotein lipase. Protein was determined for all enzyme assays by the Lowry et al. technique (J. Biol. Chem, 193, 265 (1951)).

HMG CoA Reductase = assay: In vivo enzyme activity, liver of treated mice: HMG CoA reductase; parameters: species or system CF1 male mice; settings: 16 days, ± SD
Protocol: as §1, §2

LDL = assay: Lipoprotein fractions in Rats, Example 11: LDL; assay type: in vivo, Sprague Dawley male rats; settings: oral 20 mg/kg/day, fourteen days, ± SD
Protocol: A group of six Sprague Dawley male rats were treated with 20 mg/kg/day of 3,4,5,6-dibenzohomopiperidine. The treatment was applied orally. An equal number of Sprague Dawley male rats, having approximately the same weight, were utilized as an untreated control. At the end of fourteen days the control and treated rats were sacrificed. Blood was collected from the abdominal aorta and lipoprotein fractions were obtained by the method of Hatch and Lees [Adv. Lipid Rees., 6, 1 (1968)] and Havel et al. [J. Clin Invest., 34, 1345 (1955)]. Each of the fractions were analyzed for cholesterol, triglycerides, neutral lipids, phospholipids and protein levels.

Feces = assay: Lipid Extraction Studies in Rats, Example 11: feces; assay type: in vivo, Sprague Dawley male rats; settings: oral 20 mg/kg/day, fourteen days, ± SD

c1ccc2c(c1)CNCc1ccccc1-2 [Compound 3, 3,4,5,6-dibenzohomopiperidine]
remaining activity at 50 µM (Acetyl CoA Synthetase; 50 μM): 112 ± 6%
remaining activity at 100 µM (Acetyl CoA Synthetase; 100 μM): 100 ± 7%
remaining activity at 200 µM (Acetyl CoA Synthetase; 200 μM): 101 ± 6%
Percent Control, in vivo enzyme activity (HMG CoA Reductase; 10 mg/kg/day ip): 123 ± 5%
Percent Control, in vivo enzyme activity (HMG CoA Reductase; 20 mg/kg/day ip): 133 ± 9%
Percent Control, in vivo enzyme activity (HMG CoA Reductase; 40 mg/kg/day ip): 146 ± 7%
Percent Control, in vivo enzyme activity (HMG CoA Reductase; 60 mg/kg/day ip): 124 ± 6%
Cholesterol, concentration as a function of control (LDL): 82 ± 8%
Neutral Lipids, concentration as a function of control (LDL): 107 ± 9%
Phospholipids, concentration as a function of control (LDL): 94 ± 10%
Protein, concentration as a function of control (LDL): 108 ± 9%
Triglycerides, concentration as a function of control (LDL): 73 ± 6%
Cholesterol, concentration as a function of control (Feces): 103 ± 7%
Mg Lipid Wt, concentration as a function of control (Feces): 102 ± 8%
Neutral Lipids, concentration as a function of control (Feces): 108 ± 9%
Phospholipids, concentration as a function of control (Feces): 108 ± 10%
Protein, concentration as a function of control (Feces): 133 ± 8%
Triglycerides, concentration as a function of control (Feces): 99 ± 7%
